Test results published in patent publication US20230265091A1, “COMPOUNDS WHICH INHIBIT RNA POLYMERASE” (The Johns Hopkins University, priority 2020, published 2023).
Structures can show the parent of a compound that is named as a salt.

tested on: RPA194 (RNA polymerase I, Pol I); assay: RPA194 destruction / Pol I inhibition, high-content imaging in A375 cells; assay type: cell-based; conditions: A375 cells treated for 4 hours, top concentration 10 μM; anti-RPA194 immunofluorescence; pIC50 >= 5.02 deemed a Pol I inhibitor
Description: Cell culture: A375 cells (CRL-1619, ATCC) were grown in DMEM (GTBCO) supplemented with […] fetal bovine serum (GIBCO) in 5% CO2 at 37° C.
Cell treatment and Imaging: 18 hours post-seeding in cell carrier black 384-well plates (PerkinElmer) at 15 000 cells/well, A375 cells were treated for 4 hours with a positive control or test compounds (9 serial semi-log dilutions, top concentration 10 μM). Upon treatment A375 cells were (i) fixed for 15 min at RT with 4% of paraformaldehyde, (ii) permeabilized for 20 min at RT with 0.1-0.5% of NP-40, (iii) incubated with primary antibodies at 4° C.: anti-RPA194 (1:1000-1:1250 dilution, sc-48385, Santa Cruz Biotechnology) and anti-gH2Ax (1:5000 dilution, 81299, Abcam or 1:4000, JBW302, Millipore) (iv) incubated for 1 h at RT with Hoechst (1:5000 dilution, H3570, ThermoFisher) and secondary antibodies: anti-mouse-AlexaFluor488 (1:2000 dilution, A11001, ThermoFisher) and anti-rabbit-AlexaFluor647 (1:2000 dilution, A21443, ThermoFisher) or goat anti-mouse AlexaFluor-594 (1:1000 dilution). Images were acquired on an Operetta CLS High-Content Analysis System (PerkinElmer) (40× objective; 9 fields/well) and processed using the Columbus Image Analysis System (PerkinElmer) or by using Molecular Devices ImageXpress Micro XLS High Content Imager and MetaXpress high-content acquisition and analysis software.
In the table below, (+) is associated with a pIC50 5.02 to 5.8; (++) with pIC50 5.8 to 6.3; and plus sing (+++) with a pIC50 above 6.3.

Activity Range (pIC50)	SMILES
++ ((++) with pIC50 5.8 to 6.3)	O=C(NCC1CCCC(CO)N1)c1cccn2c(=O)c3cc4ccccc4cc3nc12 (centres unmarked) [Compound 101, N-((6-(hydroxymethyl)piperidin-2-yl)methyl)-12-oxo-12H-benzo[g]pyrido[2,1-b]quinazoline-4-carboxamide hydrochloride]
++ ((++) with pIC50 5.8 to 6.3)	O=C(NCC1CCCN1)c1cccn2c(=O)c3cc4ccccc4cc3nc12 (centres unmarked) [Compound 102, 12-oxo-N-(pyrrolidin-2-ylmethyl)-12H-benzo[g]pyrido[2,1-b]quinazoline-4-carboxamide trifluoroacetate]
++ ((++) with pIC50 5.8 to 6.3)	CC(NC(=O)c1cccn2c(=O)c3cc4ccccc4cc3nc12)C1CCCCN1 (centres unmarked) [Compound 103, 12-oxo-N-(1-(piperidin-2-yl)ethyl)-12H-benzo[g]pyrido[2,1-b]quinazoline-4-carboxamide hydrochloride]
++ ((++) with pIC50 5.8 to 6.3)	O=C(NCC1CCCCN1)c1cccn2c(=O)c3cc4ccccc4cc3nc12 (centres unmarked) [Compound 104, 12-oxo-N-(piperidin-2-ylmethyl)-12H-benzo[g]pyrido[2,1-b]quinazoline-4-carboxamide hydrochloride]
++ ((++) with pIC50 5.8 to 6.3)	CCN1CCCCC1CNC(=O)c1cccn2c(=O)c3cc4ccccc4cc3nc12 (centres unmarked) [Compound 105, N-((1-ethylpiperidin-2-yl)methyl)-12-oxo-12H-benzo[g]pyrido[2,1-b]quinazoline-4-carboxamide hydrochloride]
++ ((++) with pIC50 5.8 to 6.3)	O=C(NCCN1CC[C@H](O)C1)c1cccn2c(=O)c3cc4ccccc4cc3nc12 [Compound 109, (S)-N-(2-(3-hydroxypyrrolidin-1-yl)ethyl)-12-oxo-12H-benzo[g]pyrido[2,1-b]quinazoline-4-carboxamide hydrochloride]
+++ ((+++) with a pIC50 above 6.3)	O=C(NCCN1CC[C@@H](O)C1)c1cccn2c(=O)c3cc4ccccc4cc3nc12 [Compound 110, (R)-N-(2-(3-hydroxypyrrolidin-1-yl)ethyl)-12-oxo-12H-benzo[g]pyrido[2,1-b]quinazoline-4-carboxamide hydrochloride]
++ ((++) with pIC50 5.8 to 6.3)	O=C(NCCN1CCC(O)(O)CC1)c1cccn2c(=O)c3cc4ccccc4cc3nc12 [Compound 113, N-(2-(4,4-dihydroxypiperidin-1-yl)ethyl)-12-oxo-12H-benzo[g]pyrido[2,1-b]quinazoline-4-carboxamide hydrochloride]
++ ((++) with pIC50 5.8 to 6.3)	O=C(NCCN1CCC(F)CC1)c1cccn2c(=O)c3cc4ccccc4cc3nc12 [Compound 116, N-(2-(4-fluoropiperidin-1-yl)ethyl)-12-oxo-12H-benzo[g]pyrido[2,1-b]quinazoline-4 carboxamide hydrochloride]

Continued, molecule first:

SMILES	Activity Range (pIC50)
CC(C)N1CCCCC1CNC(=O)c1cccn2c(=O)c3cc4ccccc4cc3nc12 (centres unmarked) [Compound 106, N-((1-isopropylpiperidin-2-yl)methyl)-12-oxo-12H-benzo[g]pyrido[2,1-b]quinazoline-4-carboxamide hydrochloride]	+ ((+) is associated with a pIC50 5.02 to 5.8)
CN1CCCC1CNC(=O)c1cccn2c(=O)c3cc4ccccc4cc3nc12 (centres unmarked) [Compound 107, N-((1-methylpyrrolidin-2-yl)methyl)-12-oxo-12H-benzo[g]pyrido[2,1-b]quinazoline-4-carboxamide hydrochloride]	+ ((+) is associated with a pIC50 5.02 to 5.8)
CN1CCOCC1CNC(=O)c1cccn2c(=O)c3cc4ccccc4cc3nc12 (centres unmarked) [Compound 108, N-((4-methylmorpholin-3-yl)methyl)-12-oxo-12H-benzo[g]pyrido[2,1-b]quinazoline-4-carboxamide hydrochloride]	+ ((+) is associated with a pIC50 5.02 to 5.8)
N#CC1CCN(CCNC(=O)c2cccn3c(=O)c4cc5ccccc5cc4nc23)CC1 [Compound 111, N-(2-(4-cyanopiperidine-1-yl)ethyl)-12-oxo-12H-benzo[g]pyrido[2,1-b]quinazoline-4-carboxamide hydrochloride]	+ ((+) is associated with a pIC50 5.02 to 5.8)
O=C(NCCN1CCSCC1)c1cccn2c(=O)c3cc4ccccc4cc3nc12 [Compound 112, 12-oxo-N-(2-thiomorpholinoethyl)-12H-benzo[g]pyrido[2,1-b]quinazoline-4-carboxamide hydrochloride]	+ ((+) is associated with a pIC50 5.02 to 5.8)
CN(CCC#N)CCNC(=O)c1cccn2c(=O)c3cc4ccccc4cc3nc12 [Compound 114, N-(2-((2-cyanoethyl)(methyl)amino)ethyl)-12-oxo-12H-benzo[g]pyrido[2,1-b]quinazoline-4-carboxamide hydrochloride]	+ ((+) is associated with a pIC50 5.02 to 5.8)
COC(=O)N1CCN(CCNC(=O)c2cccn3c(=O)c4cc5ccccc5cc4nc23)CC1 [Compound 115, methyl 4-(2-(12-oxo-12H-benzo[g]pyrido[2,1-b]quinazoline-4-carboxamido)ethyl)piperazine-1-carboxylate hydrochloride]	+ ((+) is associated with a pIC50 5.02 to 5.8)
O=C(NCCN1CCC(F)C1)c1cccn2c(=O)c3cc4ccccc4cc3nc12 (centres unmarked) [Compound 117, N-(2-(3-fluoropyrrolidin-1-yl)ethyl)-12-oxo-12H-benzo[g]pyrido[2,1-b]quinazoline-4-carboxamide hydrochloride]	+ ((+) is associated with a pIC50 5.02 to 5.8)
